According to US11427615B2, “Peptide compound and application thereof, and composition containing peptide compound” (XDCEXPLORER (SHANGHAI) CO., LTD., priority 2017, dated 2022):
Like-named read-outs stand apart in the source and are kept apart here. Non-standard residues stand in square brackets, D forms with d. Residues, ends and D or L forms follow the SMILES beside them. *: point of attachment. X1 = CCCCCCCCCCCC(=O)NCCOCCOCCOCCOCCOCCSC1CC(=O)N(CCCC(=O)*)C1=O; X2 = CCCCCCCCCCCC(=O)NCCOCCOCCOCCOCCOCCn1cc(CC(=O)*)nn1; dPhe(2,4-Cl2) = N[C@H](Cc1ccc(Cl)cc1Cl)C(=O)O; Pro(4,4-F2) = O=C(O)[C@@H]1CC(F)(F)CN1; Arg(Me) = CNC(=N)NCCC[C@H](N)C(=O)O; Hyp = O=C(O)[C@@H]1C[C@@H](O)CN1; AllylGly = C=CC[C@H](N)C(=O)O; PEG4 = NCCOCCOCCOCCOCCC(=O)O; Ac6c = NC1(C(=O)O)CCCCC1; azaGly = NNC(=O)O

Legend:
[1] = biological target: T1, human kiss1 receptor (GPR54) (Homo sapiens, UniProt Q969F8); test: Kiss1 receptor (GPR54) binding activity of agonists, FRET detection in NFAT-bla CHO-K1 cells; assay type: cell-based
T1 construct: host or cells: NFAT-bla CHO-K1 cells (Chinese hamster ovary), purchased recombinant cell line
T1 sequence (Q969F8 whole entry): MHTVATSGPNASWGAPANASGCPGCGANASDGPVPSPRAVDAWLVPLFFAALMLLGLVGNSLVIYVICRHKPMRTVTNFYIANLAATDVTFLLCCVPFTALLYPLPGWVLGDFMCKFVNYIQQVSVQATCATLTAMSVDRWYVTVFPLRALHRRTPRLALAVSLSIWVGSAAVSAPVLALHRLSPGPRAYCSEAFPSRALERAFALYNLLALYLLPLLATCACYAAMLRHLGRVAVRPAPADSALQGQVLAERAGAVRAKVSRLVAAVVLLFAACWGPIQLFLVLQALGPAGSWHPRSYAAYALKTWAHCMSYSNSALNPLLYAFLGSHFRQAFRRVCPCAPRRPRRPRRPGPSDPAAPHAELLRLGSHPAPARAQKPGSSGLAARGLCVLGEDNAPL

[2] = Plasma stability, LC-MS/MS; assay type: in vitro ADME; settings: rat plasma, 37° C., final concentration 500 ng/ml, time points 0 minutes, 1, 2 and 4 hours; calculated half-life; read-out: Rat plasma (T½ (h)) (converted)
Description: Effect Embodiment 2 Experimental Data on Plasma Stability of Some Compounds
1. Preparation of 50 mM Phosphate Buffer:
The 5.750 g Na2HPO4, 1.141 g NaH2PO4. and 4.095 g NaCl (Shanghai Titan) weighed was dissolved in 1000 mL ultrapure water and the pH was adjusted to 7.4 to give 50 mM phosphate buffer containing 70 mM NaCl. The prepared phosphoric acid buffer solution was stored in the refrigerator at 4° C. and was valid for one week.
2. Preparation of compound stock solution:
1). 5 mg/mL of test compound: 5 mg of compound was weighted and dissolved in 1 mL of DMSO.
2). 20 mM control: 2.728 mg of Fuka was dissolved in 0.5 mL of DMSO. 3.878 mg of benzalkonium bromide was dissolved in 0.5 mL of DMSO (Amresco).
3. Preparation of experimental plasma:
The frozen plasma (human: Shanghai wise chemistry; Rats and mice: Shanghai Sciple-Bikai; Dogs and monkeys: Suzhou Xishan Zhongke) were taken out of the −80° C. refrigerator, immediately placed in a 37° C. water bath, slightly shaken to melt it, then the thawed plasma was poured into a centrifuge tube, centrifuged at 3000 rpm for 8 min, and the supernatant was taken for experiments. The pH value of plasma was detected by a pH Meter & Sensor (METTLER TOLEDO). Only plasma with a pH value between 7.4 and 8 was used in the experiment. The plasma was placed on an ice bath for later use.
4. Preparation of administration solution:
1). 125 µg/ml test compound solution: 5 μL of 5 mg/mL test compound (see step 2) was added into 195 μL DMSO; 500 μM control solution: 20 mM control stock solution (see step 2) was added to 195 μL DMSO.
2). 0.5% BSA phosphate buffer solution: 0.05 g BSA was added to 10 mL phosphate buffer solution (see step 1);
3). 5 µg/ml of test compound administration solution: 40 μL of 125 μg/mL of test compound solution was added into 960 μL 0.5% BSA phosphate buffer solution, stirred and mixed evenly, and the administration solution was preheated in a 37° C. water bath for 5 minutes.
20 μM reference substance administration solution: 40 μL of 500 μM reference substance administration solution was added into 960 μL 0.5% BSA phosphate buffer solution, stirred and mixed evenly, and the administration solution was preheated in a 37° C. water bath for 5 minutes.
5. 10 μL of 5 μg/mL of the test compound and 20 μM of the control substance administration solution were respectively added to the wells set at different time points (0 minutes, 1 hour, 2 hours and 4 hours) on the 96-well plate, and the number of duplicate samples was 3.
6. 500 μL of ACN (IS) containing 5% FA was added to the well set at 0 minute hour, then 90 μL of plasma was added, after mixing, sealing film was pasted and placed at 4° C. (number of duplicate samples was 3).
7. 90 μL of plasma was added to the wells with set time points of 1 hour, 2 hours and 4 hours respectively, the number of duplicate samples was 3, and timing was started (the final concentration of the test compound was 500 ng/ml; The control was 2 μM).
9. All samples (0 minutes, 1 hour, 2 hours and 4 hours) at different time points on a 96-well plate were shaken for 10 minutes at 600 rpm/min on an oscillator (MTS 2/4, IKA), and then the samples were centrifuged for 15 minutes at 5594×g in a centrifuge (Multifuge×3R, thermo Fisher).
10. 150 μL of supernatant was taken from the centrifuged sample and sent to LC-MS/MS for analysis (conventional polypeptide LC-MS/MS analysis method).

[3] = GPR54, measured according to the method of effect Embodiment 1, preliminary data, read-out: Preliminary measurement data (GPR54) EC50

CNC(=N)NCCC[C@H](NC(=O)[C@H](CC(C)C)NC(=O)NNC(=O)[C@H](Cc1ccccc1)NC(=O)[C@@H](NC(=O)[C@H](CC(N)=O)NC(=O)[C@@H]1C[C@@H](O)CN1C(=O)[C@@H](Cc1ccc(O)cc1)NC(C)=O)[C@@H](C)O)C(=O)N[C@@H](Cc1c[nH]c2ccccc12)C(N)=O [YA-3, Ac-(D-Tyr)-Hyp-Asn-Thr-Phe-azaGly-Leu-Arg(Me)-trp-NH2] (Ac-[dY][Hyp]NTF[azaGly]L[Arg(Me)]W-NH2)
EC50 [1, 3]: 0.03 nM | EC50 ([1]; NFAT-bla CHO-K1 cells that express human kiss1 receptor (GPR54), FRET, cells cultured with compound for 4 hours, read-out: GPR54 EC50/nM): 0.03 nM | half-life at 500 ng/ml [2]: 10.1 h

CNC(=N)NCCC[C@H](NC(=O)[C@H](CC(C)C)NC(=O)NNC(=O)[C@H](Cc1ccccc1)NC(=O)[C@@H](NC(=O)[C@H](CC(N)=O)NC(=O)[C@@H]1C[C@@H](O)CN1C(=O)[C@@H](Cc1ccc(O)cc1)NC(=O)CCOCCOCCOCCOCCNC(C)=O)[C@@H](C)O)C(=O)N[C@@H](Cc1c[nH]c2ccccc12)C(N)=O [YA-150, Ac-PEG4-(D-Tyr)-Hyp-Asn-Thr-Phe-azaGly-Leu-Arg(Me)-Trp-NH2] (Ac-[PEG4][dY][Hyp]NTF[azaGly]L[Arg(Me)]W-NH2)
EC50 [1, 3]: 0.004 nM | half-life at 500 ng/ml [2]: 6.67 h

CNC(=N)NCCC[C@H](NC(=O)[C@H](CC(C)C)NC(=O)NNC(=O)[C@H](Cc1ccccc1)NC(=O)[C@@H](NC(=O)[C@H](CC(N)=O)NC(=O)C1(NC(=O)[C@@H](Cc2ccc(O)cc2)NC(C)=O)CCCCC1)[C@@H](C)O)C(=O)N[C@@H](Cc1c[nH]c2ccccc12)C(N)=O [YA-172, Ac-D-Tyr-A6c-Asn-Thr-Phe-azaGly-Leu-Arg(Me)-Trp-NH2] (Ac-[dY][Ac6c]NTF[azaGly]L[Arg(Me)]W-NH2)
half-life at 500 ng/ml [2]: 9.42 h

CNC(=N)NCCC[C@H](NC(=O)[C@H](CC(C)C)NC(=O)NNC(=O)[C@H](Cc1ccccc1)NC(=O)[C@@H](NC(=O)[C@H](CC(N)=O)NC(=O)[C@@H]1CC(F)(F)CN1C(=O)[C@@H](Cc1ccc(Cl)cc1Cl)NC(C)=O)[C@@H](C)O)C(=O)N[C@@H](Cc1c[nH]c2ccccc12)C(N)=O [YA-180, Ac-[D-Phe(2,4-DiCl)]-Pro(diF)-Asn-Thr-Phe-azaGly-Leu-Arg(Me)-Trp-NH2] (Ac-[dPhe(2,4-Cl2)][Pro(4,4-F2)]NTF[azaGly]L[Arg(Me)]W-NH2)
half-life at 500 ng/ml [2]: 9.63 h

CCCCCCCCCCCC(=O)NCCOCCOCCOCCOCCOCCSC1CC(=O)N(CCCC(=O)N[C@H](Cc2ccc(O)cc2)C(=O)N2C[C@H](O)C[C@H]2C(=O)N[C@@H](CC(N)=O)C(=O)N[C@H](C(=O)N[C@@H](Cc2ccccc2)C(=O)NNC(=O)N[C@@H](CC(C)C)C(=O)N[C@@H](CCCNC(=N)NC)C(=O)N[C@@H](Cc2c[nH]c3ccccc23)C(N)=O)[C@@H](C)O)C1=O (stereo partly drawn) [YA-325, Dodecanoy-(NH-PEG5-CH2CH2S)-(maleimide-butanoyl-)-(D-Tyr)-Hyp-Asn-Thr-Phe-azaG-Leu-Arg(Me)-Trp-NH2] (X1-[dY][Hyp]NTF[azaGly]L[Arg(Me)]W-NH2)
half-life at 500 ng/ml [2]: 4.26 h

CCCCCCCCCCCC(=O)NCCOCCOCCOCCOCCOCCn1cc(CC(=O)N[C@H](Cc2ccc(O)cc2)C(=O)N2C[C@H](O)C[C@H]2C(=O)N[C@@H](CC(N)=O)C(=O)N[C@H](C(=O)N[C@@H](Cc2ccccc2)C(=O)NNC(=O)N[C@@H](CC(C)C)C(=O)N[C@@H](CCCNC(=N)NC)C(=O)N[C@@H](Cc2c[nH]c3ccccc23)C(N)=O)[C@@H](C)O)nn1 [YA-326, Dodecanoyl-NH-PEG5-1,2,3-Triazole-Cyclic-Butanoyl-(D-Tyr)-Hyp-Asn-Thr-Phe-Azag-Leu-Arg(Me)-Trp-NH2] (X2-[dY][Hyp]NTF[azaGly]L[Arg(Me)]W-NH2)
half-life at 500 ng/ml [2]: 4.97 h

C=CC[C@H](NC(=O)[C@H](Cc1ccccc1)NC(=O)[C@@H](NC(=O)[C@H](CC(N)=O)NC(=O)[C@@H]1C[C@@H](O)CN1C(=O)[C@@H](Cc1ccc(O)cc1)NC(C)=O)[C@@H](C)O)C(=O)N[C@@H](CC(C)C)C(=O)N[C@@H](CCCNC(=N)NC)C(=O)N[C@@H](Cc1c[nH]c2ccccc12)C(N)=O [YA-350, Ac-(D-Tyr)-Hyp-Asn-Thr-Phe-Alg-Leu-Arg(Me)-Trp-NH2] (Ac-[dY][Hyp]NTF[AllylGly]L[Arg(Me)]W-NH2)
half-life at 500 ng/ml [2]: 0.22 h
